Results as given in patent EP4813986A1, “COMPOUND FOR REDUCING SERUM CONCENTRATION OF RBP4, AND USE” (Heronova Pharmaceuticals, LLC, priority 2023, dated 2025).

Tests used:
RBP4 = molecular target: T1, RBP4 (Mus musculus, UniProt Q00724); experiment: Plasma RBP4 content detection test (ELISA) after single oral dose; format: in vivo, ICR male mice; conditions: 5 mg/kg oral, maximum reduction within 5 to 24 hours vs 0-hour value
T1 construct: from tissue; host or cells: plasma of ICR male mice
Experimental: Test Method: ICR male mice aged 7 to 8 weeks were adaptively fed for 3 to 7 days and randomly divided into groups (4 mice per group), and fasted for 12 hours before the test. Orbital venous blood samples were collected and plasma was separated before administration on the test day (0-hour value as the initial content). Then, test compounds at a dose of 1 mg/kg or 5 mg/kg were orally administered (vehicle: 5% DMSO + 10% cyclodextrin), and vehicle (5% DMSO + 10% cyclodextrin) was orally administered as a control group. Orbital venous blood samples were collected and plasma was separated at 5, 8, 10, 12, and 24 hours after compound administration. The RBP4 content in plasma samples was detected using Mouse RBP4 (Retinol Binding Protein 4, Plasma) ELISA Kit (immunoway, KE1574), the reduction rate was calculated, and the maximum reduction rate within 5 to 24 hours was selected. Reduction rate of RBP4 content in mouse plasma at different sampling time points = (Initial RBP4 content - RBP4 content at sampling point) / Initial RBP4 content. Table 2 Plasma RBP4 Reduction Levels of Different Compounds

[1] = Pharmacokinetic test, single oral dose, plasma LC-MS/MS; format: in vivo; conditions: mouse, single oral dose 10 mg/kg, male ICR mice
Experimental: Test Method: Three ICR mice (male) were used for each compound, with five groups in total. Mice were treated with a single oral dose of 10 mg/kg or 5 mg/kg. For each mouse, blood samples were collected at 0.25, 0.5, 1, 2, 4, and 8 hours after administration. Whole blood samples were placed in test tubes containing EDTA-K2, inverted up and down several times, and then centrifuged at 6000 rpm, 4°C for 15 minutes to obtain plasma. The concentration of the compound in plasma samples was determined using the LC-MS/MS method. Table 4 Pharmacokinetic Results of Different Compounds

in vitro = conditions: microsomes, pH 7.4
Experimental: Phosphate buffer preparation: Weigh 7.098 g of disodium hydrogen phosphate, add 500 mL of pure water and dissolve by ultrasonication to obtain a disodium hydrogen phosphate solution. Weigh 3.400 g of potassium dihydrogen phosphate, add 250 mL of pure water and dissolve by ultrasonication to obtain a potassium dihydrogen phosphate solution. The disodium hydrogen phosphate solution and potassium dihydrogen phosphate solution were mixed and adjusted to pH 7.4+0.2.
10 mM NADPH preparation: Weigh an appropriate amount of NADPH (reduced coenzyme II), freshly prepare a 10 mM working solution with phosphate buffer, and the final concentration is 1 mM.
Incubation system preparation: Prepare the suspension into the incubation plate according to Table 5, and pre-incubate in a 37°C water bath for 10 min. Table 5 Incubation System Preparation
2 µL of positive control or test compound working solution was added to 358 µL of the incubation system, mixed uniformly by vortexing, and all samples were prepared in duplicate. 40 µL of 10 mM NADPH was added to the system, mixed uniformly by low-speed vortexing, and the reaction timing was started. […] Centrifuge at 4700 rpm, 4°C for 15 minutes to precipitate proteins. Transfer 100 µL of the supernatant to the sample plate, add 100 µL of pure water and mix well for UPLC-MS/MS analysis. Table 6 Liver Microsome Stability Results

## CC(C(N)=O)C(=O)N1CCc2c(C(=O)N3CC=C(c4cccc(F)c4C(F)(F)F)CC3)n[nH]c2C1 (centres unmarked) [Compound 22]
RBP4
  Maximum Plasma RBP4 Reduction Rate (5 mg/kg dose): 11%
[1]
  AUC(0-t): 13.3 ng·h/mL
[1]; read-out: peak concentration Cmax
  Cmax: 15.2 ng/mL
[1]; read-out: peak time Tmax
  Tmax: 30 min
In vitro; human
  half-life at 1 µM: > 180 min
  microsomal CLint at 1 µM: < 7.44 µL/min/mg
In vitro; mouse
  half-life at 1 µM: 43 min
  microsomal CLint at 1 µM: 32.2 µL/min/mg
